How the values were obtained:
Type in all cases: in vivo, male Sprague-Dawley I.O.P.S. rats
granuloma = assay: Local anti-inflammatory activity: inhibition of granuloma formation around implanted cotton wool pellet; conditions: for R 1 (relative local anti-inflammatory activity compared with betamethasone 17,21-dipropionate): D.P.B. = 1, calculated from ED50; for R 1 (relative local anti-inflammatory activity compared with betamethasone 17,21-dipropionate) / ED50 (local anti-inflammatory activity, 50% inhibition in granuloma weight): Table 1; for ED50 (local anti-inflammatory activity, 50% inhibition in granuloma weight): rat, cotton pellet granuloma, six days after implantation; for activity compared with betamethasone 17,21-dipropionate (times greater): local anti-inflammatory test
Procedure: A. Winter and C. C. Porter (J. Am. Pharm. Ass. 1957, 46, 9, pages 515-519).
(§1) The principle of the test consists in implanting a pellet of cotton wool in the dorsal subcutaneous tissue of the animal. The corticoids to be studied are added to the pellet so that the following tests can be carried out:
(1) Determination of the local anti-inflammatory activity
The presence of products within the pellet may inhibit or prevent the formation of a granuloma.
(§2) The animals are divided into random homogeneous groups of 10 male Sprague-Dawley I.O.P.S. rats with a body weight of between 100 and 120 grams.
(§3) The pellets to be implanted weigh from 35 to 40 mg and are prepared from balls of dental cotton wool. Before being inserted, each pellet is weighed and impregnated with the precise quantity of the product which is to be studied, dissolved in 0.2 ml of chloroform. The chloroform is eliminated by evaporation over a period of 24 hours at ambient temperature.
(§4) Before implantation, each pellet is impregnated with a solution of antibiotics:
Streptomycin 0.1 gram/ml.
(§5) The animals are anaesthetised with ether, and then two pellets are implanted in each animal in the dorsal subcutaneous tissue, on each side of the median line:
(§6) on the left, the pellet containing the product to be tested (treated animal) or the carrier only (control animal);
(§7) on the right, the pellet containing the carrier only.
(§8) The animals are given normal food and are sacrificed six days after the pellets have been implanted.
(1) Local anti-inflammatory activity
The pellets surrounded by granulomatous tissue are carefully removed and weighed, and then dried until a constant weight is obtained.
The relative activity of the test products compared with betamethasone 17,21-dipropionate is calculated according to the following equation: [formula]

thymus = assay: Systemic activity after local administration: effect on the weight of the thymus; conditions: rat, in vivo
Procedure: (§9) The pharmacological activity of the products described in the invention was tested in the rat using a technique similar to that described by C. A. Winter and C. C. Porter (J. Am. Pharm. Ass. 1957, 46, 9, pages 515-519).
as §1
(§10) (2) Determination of the systemic activity of the products after local administration
(§11) Local application of the corticoids may result, inter alia, in:
(a) a reduction in the defence systems of the organism, the most notable sign of which is a reduction in the weight of the animals' thymuses.
as §2, §3, §4, §5, §6, §7, §8
(2) Determination of the systemic effect
The thymuses are taken from the same animals and weighed. Using the same type of calculation, an ED 50 is determined, which corresponds to the dosage of product resulting in a 50% decrease in weight of the thymuses, compared with the control animals.

[1] = Systemic activity after local administration: effect on weight gain; conditions: rat, in vivo, 8640 min
Procedure: as §9, §1, §10, §11
(b) Disruption of the protein metabolism which causes tissue fusion, resulting in an inhibition of the weight increase in animals.
as §2, §3, §4, §5, §6, §7, §8
(b) Effect on weight gain
The weight gain over six days is determined on the animals before they are sacrificed.
The activity of the products was expressed as the percentage inhibition in the weight gain of the treated animals compared with the weight gain in the control animals.
The ED 30 which corresponds to a 30% inhibition in the weight gain was determined.

SMILES	R 1 (relative local anti-inflammatory activity compared with betamethasone 17,21-dipropionate) (granuloma)	ED50 (local anti-inflammatory activity, 50% inhibition in granuloma weight) (granuloma)	ED50 (50% decrease in weight of the thymuses) (thymus)	R 2 (relative effect on thymus weight compared with D.P.B.) (thymus; 8640 min)	ED30 (30% inhibition in the weight gain) [1]	R 3 (relative activity on weight gain compared with D.P.B.) [1]	ED50 (50% decrease in weight of the thymuses) (thymus; 8640 min)	activity compared with betamethasone 17,21-dipropionate (times greater) (granuloma)
CCCCC(=O)O[C@]1(C(=O)CSC(=O)C(C)(C)C)CC[C@H]2[C@@H]3CCC4=CC(=O)CC[C@]4(C)[C@H]3[C@@H](O)C[C@@]21C [Ex. 2, 11β-hydroxy-pregn-4-ene-3,20-dione (or hydrocortisone) 17-valerate, 21-thiopivalate]	0.75	2.140 mg/pellet	zero to 3.4	< 0.25	> 3.4 mg/pellet	< 0.24		
CCCCC(=O)O[C@]1(C(=O)CSC(=O)CCCC)CC[C@H]2[C@@H]3C[C@H](C)C4=CC(=O)C=C[C@]4(C)[C@H]3[C@@H](O)C[C@@]21C [Ex. 6, 11β-hydroxy-6α-methyl-pregna-1,4-diene-3,20-dione (or 6α-methylprednisolone) 17-valerate, 21-thiovalerate]	8.9	0.180 mg/pellet		< 0.86	> 1 mg/pellet	< 0.8	> 1 mg/pellet	
CCCCC(=O)OC1(C(=O)CSC(C)=O)C(C)CC2C3CCC4=CC(=O)C=CC4(C)C3(F)C(O)CC21C (stereo not drawn) [Ex. 13, 9α-fluoro-11β-hydroxy-16β-methyl-pregna-1,4-diene-3,20-dione (or betamethasone) 17-valerate, 21-thioacetate]	32.2	0.050 mg/pellet		1.1	0.65 mg/pellet	1.23	0.8 mg/pellet	
CCCC(=O)O[C@]1(C(=O)CSC(C)=O)CC[C@H]2[C@@H]3CCC4=CC(=O)C=C[C@]4(C)[C@H]3C(=O)C[C@@]21C [Ex. 3, Pregna-1,4-diene-3,11,20-trione (or prednisone) 17-butyrate, 21-thioacetate]	2.7	0.600 mg/pellet		< 0.17	> 5 mg/pellet	< 0.16	> 5 mg/pellet	
CCCCC(=O)OC1(C(=O)CSC(=O)CCCC)C(C)CC2C3CCC4=CC(=O)C=CC4(C)C3(F)C(O)CC21C (stereo not drawn) [Ex. 12, 9α-fluoro-11β-hydroxy-16β-methyl-pregna-1,4-diene-3,20-dione (or betamethasone) 17-valerate, 21-thiovalerate]	> 129	< 0.0125 mg/pellet		< 1	> 0.8 mg/pellet	< 1	> 0.8 mg/pellet	more than 100 times
CCC(=O)OC1(C(=O)CSC(=O)CC)C(C)CC2C3CCC4=CC(=O)C=CC4(C)C3(Cl)C(O)CC21C (stereo not drawn) [Ex. 15, 9α-chloro-11β-hydroxy-16β-methyl-pregna-1,4-diene-3,20-dione (or beclomethasone) 17-propionate, 21-thiopropionate]	> 322	< 0.005 mg/pellet		0.36	0.56 mg/pellet	1.42	2.4 mg/pellet	more than 100 times
CCCCC(=O)OC1(C(=O)CSC(C)=O)C(C)CC2C3CCC4=CC(=O)C=CC4(C)C3(Cl)C(O)CC21C (stereo not drawn) [Ex. 17, 9α-chloro-11β-hydroxy-16β-methyl-pregna-1,4-diene-3,20-dione (or beclomethasone) 17-valerate, 21-thioacetate]	8.9	0.180 mg/pellet		< 0.86	> 1.0 mg/pellet	< 0.8	> 1 mg/pellet	
CC(=O)OC1(C(=O)CSC(C)=O)C(C)CC2C3CCC4=CC(=O)C=CC4(C)C3(F)C(O)CC21C (stereo not drawn) [Ex. 8, 9α-fluoro-11β-hydroxy-16β-methyl-pregna-1,4-diene-3,20-dione (or betamethasone) 17-acetate, 21-thioacetate]	22	0.072 mg/pellet		0.71	1 mg/pellet	0.8	1.20 mg/pellet	
CCC(=O)OC1(C(=O)CSC(C)=O)C(C)CC2C3CCC4=CC(=O)C=CC4(C)C3(F)C(O)CC21C (stereo not drawn) [Ex. 10, 9α-fluoro-11β-hydroxy-16β-methyl-pregna-1,4-diene-3,20-dione (or betamethasone) 17-propionate, 21-thioacetate]	124	0.013 mg/pellet		3.40	> 1 mg/pellet	< 0.8	0.25 mg/pellet	more than 100 times
CCC(=O)OC1(C(=O)CSC(=O)CC)C(C)CC2C3CCC4=CC(=O)C=CC4(C)C3(F)C(O)CC21C (stereo not drawn) [Ex. 11, 9α-fluoro-11β-hydroxy-16β-methyl-pregna-1,4-diene-3,20-dione (or betamethasone) 17-propionate, 21-thiopropionate]	134	0.012 mg/pellet		1.9	0.8 mg/pellet	1	0.46 mg/pellet	more than 100 times

Source: patent US4427671A, “Steroids esterified in position 17 and thioesterified in position 21, a process for preparing them and their use as medicaments” (priority 1981, dated 1984)
